Measured values: patent US8409581B2, “Compounds for treating amyloidoses” (Affiris AG, priority 2008, dated 2013)
Ends that are not written are not given here.

Tests used:
[1] = tested on: monoclonal antibody MV-002; test: In vitro binding assay (ELISA) of mimotopes to parental antibody; set-up: species or system mice; conditions: peptide coupled to BSA bound to ELISA plates (1 μM); parental antibody MV-002
Protocol: 1. In Vitro Binding Assay (ELISA)
Peptides derived from Phage Display as well as variants thereof were coupled to BSA and bound to ELISA plates (1 μM; as indicated in the respective figures) and subsequently incubated with the monoclonal antibody that was used for the screening procedure to analyse binding capacity of identified peptides.

[2] = tested on: monoclonal antibody MV-002 binding to the original epitope; test: In vitro inhibition assay (ELISA); set-up: species or system mice; conditions: OD at 5 ug peptide compared to original peptide; MV-002
Protocol: 2. In Vitro Inhibition Assay (ELISA)
Different amounts of peptides (concentrations ranging from 5 μg to 0.03 μg; serial dilutions), derived from Phage Display were incubated with the monoclonal antibody that was used for the screening procedure. Peptides diminishing subsequent binding of the antibody to the original epitope coated on ELISA plates were considered as inhibiting in this assay.

Substance: AGEIYFERC [p4806, MV-002 mimotope peptide]
- Binding Capacity (binding code; OD halfmax 1:X, dilution factor of the parental AB) [1]: 1 (weak binding :<40000)

Substance: AIPLFVMC [p4682, MV-002 mimotope peptide]
- Binding Capacity (binding code; OD halfmax 1:X, dilution factor of the parental AB) [1]: 1 (weak binding :<40000)

Substance: Ac-GEIYFERC [p4804, MV-002 mimotope peptide, N-terminally acetylated]
- Binding Capacity (binding code; OD halfmax 1:X, dilution factor of the parental AB) [1]: 2 (medium binding :40000-320000)

Substance: CGEIYFER [p4807, MV-002 mimotope peptide]
- Binding Capacity (binding code; OD halfmax 1:X, dilution factor of the parental AB) [1]: 1 (weak binding :<40000)

Substance: GDLKFPLC [p4683, MV-002 mimotope peptide]
- Binding Capacity (binding code; OD halfmax 1:X, dilution factor of the parental AB) [1]: 3 (strong binding :>320000)

Substance: GEIKFDHC [p4698, MV-002 mimotope peptide]
- Inhibition Capacity (competition code) [2]: 2 (strong inhibition (as original epitope; OD of peptide below 2, 3 times of original peptide))
- Binding Capacity (binding code; OD halfmax 1:X, dilution factor of the parental AB) [1]: 3 (strong binding :>320000)

Substance: GEILFGMC [p4689, MV-002 mimotope peptide]
- Inhibition Capacity (competition code) [2]: 1 (Weaker than original epitope (OD of peptide below 4, 6 times of original peptide))
- Binding Capacity (binding code; OD halfmax 1:X, dilution factor of the parental AB) [1]: 3 (strong binding :>320000)

Substance: GEIQFGAC [p4699, MV-002 mimotope peptide]
- Inhibition Capacity (competition code) [2]: 1 (Weaker than original epitope (OD of peptide below 4, 6 times of original peptide))
- Binding Capacity (binding code; OD halfmax 1:X, dilution factor of the parental AB) [1]: 3 (strong binding :>320000)

Substance: GEIRFALC [p4678, MV-002 mimotope peptide]
- Binding Capacity (binding code; OD halfmax 1:X, dilution factor of the parental AB) [1]: 3 (strong binding :>320000)

Substance: GEIRFELC [p4796, MV-002 mimotope peptide]
- Binding Capacity (binding code; OD halfmax 1:X, dilution factor of the parental AB) [1]: 2 (medium binding :40000-320000)

Substance: GEIRFGSC [p4696, MV-002 mimotope peptide]
- Binding Capacity (binding code; OD halfmax 1:X, dilution factor of the parental AB) [1]: 3 (strong binding :>320000)

Substance: GELFFEKC [p4795, MV-002 mimotope peptide]
- Binding Capacity (binding code; OD halfmax 1:X, dilution factor of the parental AB) [1]: 2 (medium binding :40000-320000)

Substance: GELFFPKC [p4685, MV-002 mimotope peptide]
- Binding Capacity (binding code; OD halfmax 1:X, dilution factor of the parental AB) [1]: 3 (strong binding :>320000)

Substance: GELQFPPC [p4672, MV-002 mimotope peptide]
- Binding Capacity (binding code; OD halfmax 1:X, dilution factor of the parental AB) [1]: 3 (strong binding :>320000)

Substance: GELWFPC [p4673, MV-002 mimotope peptide]
- Inhibition Capacity (competition code) [2]: 1 (Weaker than original epitope (OD of peptide below 4, 6 times of original peptide))
- Binding Capacity (binding code; OD halfmax 1:X, dilution factor of the parental AB) [1]: 3 (strong binding :>320000)

Substance: GELYFRAC [p4677, MV-002 mimotope peptide]
- Binding Capacity (binding code; OD halfmax 1:X, dilution factor of the parental AB) [1]: 3 (strong binding :>320000)

Substance: GEMQFFIC [p4676, MV-002 mimotope peptide]
- Binding Capacity (binding code; OD halfmax 1:X, dilution factor of the parental AB) [1]: 3 (strong binding :>320000)

Substance: GEMWFALC [p4671, MV-002 mimotope peptide]
- Binding Capacity (binding code; OD halfmax 1:X, dilution factor of the parental AB) [1]: 3 (strong binding :>320000)

Substance: GMIVFPHC [p4679, MV-002 mimotope peptide]
- Binding Capacity (binding code; OD halfmax 1:X, dilution factor of the parental AB) [1]: 3 (strong binding :>320000)

Substance: GQIIFQSC [p4668, MV-002 mimotope peptide]
- Binding Capacity (binding code; OD halfmax 1:X, dilution factor of the parental AB) [1]: 2 (medium binding :40000-320000)

Substance: GQIKFAQC [p4694, MV-002 mimotope peptide]
- Binding Capacity (binding code; OD halfmax 1:X, dilution factor of the parental AB) [1]: 3 (strong binding :>320000)

Substance: GQILFPVC [p4684, MV-002 mimotope peptide]
- Binding Capacity (binding code; OD halfmax 1:X, dilution factor of the parental AB) [1]: 3 (strong binding :>320000)

Substance: GQIMFPRC [p4686, MV-002 mimotope peptide]
- Binding Capacity (binding code; OD halfmax 1:X, dilution factor of the parental AB) [1]: 3 (strong binding :>320000)

Substance: GQIQFPLC [p4697, MV-002 mimotope peptide]
- Binding Capacity (binding code; OD halfmax 1:X, dilution factor of the parental AB) [1]: 3 (strong binding :>320000)

Substance: GQIRFDHC [p4669, MV-002 mimotope peptide]
- Binding Capacity (binding code; OD halfmax 1:X, dilution factor of the parental AB) [1]: 3 (strong binding :>320000)

Substance: GQIWFISC [p4666, MV-002 mimotope peptide]
- Binding Capacity (binding code; OD halfmax 1:X, dilution factor of the parental AB) [1]: 1 (weak binding :<40000)

Substance: GQLKFPFC [p4690, MV-002 mimotope peptide]
- Binding Capacity (binding code; OD halfmax 1:X, dilution factor of the parental AB) [1]: 3 (strong binding :>320000)

Substance: GSLFFWPC [p4688, MV-002 mimotope peptide]
- Binding Capacity (binding code; OD halfmax 1:X, dilution factor of the parental AB) [1]: 2 (medium binding :40000-320000)

Substance: GTIFFRDC [p4692, MV-002 mimotope peptide]
- Binding Capacity (binding code; OD halfmax 1:X, dilution factor of the parental AB) [1]: 1 (weak binding :<40000)

Substance: GTLIFHHC [p4695, MV-002 mimotope peptide]
- Binding Capacity (binding code; OD halfmax 1:X, dilution factor of the parental AB) [1]: 2 (medium binding :40000-320000)

Substance: HMRMYFEC [p4687, MV-002 mimotope peptide]
- Binding Capacity (binding code; OD halfmax 1:X, dilution factor of the parental AB) [1]: 3 (strong binding :>320000)

Substance: HQKMIFC [p4794, MV-002 mimotope peptide]
- Inhibition Capacity (competition code) [2]: 1 (Weaker than original epitope (OD of peptide below 4, 6 times of original peptide))
- Binding Capacity (binding code; OD halfmax 1:X, dilution factor of the parental AB) [1]: 2 (medium binding :40000-320000)

Substance: KLPLFVMC [p4691, MV-002 mimotope peptide]
- Binding Capacity (binding code; OD halfmax 1:X, dilution factor of the parental AB) [1]: 1 (weak binding :<40000)

Substance: NDAKIVFC [p4667, MV-002 mimotope peptide]
- Inhibition Capacity (competition code) [2]: 1 (Weaker than original epitope (OD of peptide below 4, 6 times of original peptide))
- Binding Capacity (binding code; OD halfmax 1:X, dilution factor of the parental AB) [1]: 3 (strong binding :>320000)

Substance: QLPLFVLC [p4700, MV-002 mimotope peptide]
- Binding Capacity (binding code; OD halfmax 1:X, dilution factor of the parental AB) [1]: 1 (weak binding :<40000)

Substance: SGEIHFNC [p4415, MV-002 mimotope peptide]
- Binding Capacity (binding code; OD halfmax 1:X, dilution factor of the parental AB) [1]: 1 (weak binding :<40000)

Substance: SGEIYFERC [p4805, MV-002 mimotope peptide]
- Binding Capacity (binding code; OD halfmax 1:X, dilution factor of the parental AB) [1]: 1 (weak binding :<40000)

Substance: SGEYVFHC [p4404, MV-002 mimotope peptide]
- Binding Capacity (binding code; OD halfmax 1:X, dilution factor of the parental AB) [1]: 1 (weak binding :<40000)

Substance: SGQIWFRC [p4414, MV-002 mimotope peptide]
- Binding Capacity (binding code; OD halfmax 1:X, dilution factor of the parental AB) [1]: 1 (weak binding :<40000)

Substance: SGQLKFPC [p4413, MV-002 mimotope peptide]
- Binding Capacity (binding code; OD halfmax 1:X, dilution factor of the parental AB) [1]: 1 (weak binding :<40000)

Substance: SHQRLWFC [p4674, MV-002 mimotope peptide]
- Inhibition Capacity (competition code) [2]: 1 (Weaker than original epitope (OD of peptide below 4, 6 times of original peptide))
- Binding Capacity (binding code; OD halfmax 1:X, dilution factor of the parental AB) [1]: 3 (strong binding :>320000)

Substance: THQRLWFC [p4693, MV-002 mimotope peptide]
- Binding Capacity (binding code; OD halfmax 1:X, dilution factor of the parental AB) [1]: 3 (strong binding :>320000)
